Consider 3 compounds from US8895752B2, “Alkylsulfonyl-substituted thiazolide compounds” (priority 2007, dated 2014).

Values joined by “and” are separate entries in the source; they are usually repeats but may differ in a detail not shown here. Identical values can stand only once. Like-named read-outs stand apart in the source and are kept apart here.

The nature of data set [1]: Cytotoxicity by neutral red dye uptake in AVA5 cells. Format: cell-based. To be noted: human, AVA5 cells (HCV replicon, sub-genomic CON1), Genotype 1b replicon.
The test system of data set [2] is HCV replicon H/FL-Neo, genotype 1a full length. Briefly: HCV replicon assay in Huh7 cells containing H/FL-Neo. The data set is classed as cell-based, Hepatitis C Virus. Here is the method:
(§1) Antiviral activity of test compounds was assessed in a 3-day assay using the stably-expressing HCV replicon cell line, AVA5 (sub-genomic CON1, genotype 1b) (Blight et al., 2000) maintained as sub-confluent cultures on 96-well plates as previously described (Okuse et al., 2005). Antiviral activity was determined by blot hybridization analysis of intracellular HCV RNA (normalized to the level of cellular B-actin RNA in each culture sample) and cytotoxicity was assessed by neutral red dye uptake after 3 days of treatment. Additional studies were performed using Huh7 cells containing another HCV replicon, H/FL-Neo, a genotype 1a full length construct (Blight et al., 2003). For studies involving human serum, standard culture medium (which contains 10% fetal bovine serum) and assay conditions were maintained.
(§2) EC50, EC90 and CC50 values (±standard deviations [S.D.]) were calculated by linear regression analysis using data combined from all treated cultures (Korba and Gerin, 1992; Okuse et al., 2005). […] Selectivity index (S.I.) was calculated as CC50/EC90 for HBV assays and CC50/EC50 for HCV assays. EC90 values were used for calculation of the S.I. in HBV assays since at least a […] depression of HBV DNA levels is typically required to achieve statistical significance in this assay system (Korba and Gerin, 1992). For combination treatments, EC50, EC90, CC50 and S.I. are presented for the first compound listed. The molar ratio of the compounds in each combination is also indicated.
On the technique in general: A replicon is a self-replicating genome or part of one, used to study replication in cells.

The test system of data set [3] is HCV replicon, sub-genomic CON1, genotype 1b. The data set can be described thus: 3-day HCV replicon assay in AVA5 cells (intracellular HCV RNA, blot hybridization). The data set is classed as cell-based, Hepatitis C Virus. The protocol:
as §1, §2

The test system of the next data set is cytochrome P450 enzymes. The settings on record: cited from earlier work.
The conditions of data set [4]: cited from earlier work.
The nature of data set [5]: Cytotoxicity in HCV replicon cells in the presence of human serum. Here is the method: as §1, §2
(§3) To evaluate the effect of human serum on the anti-HCV potency and cytotoxicity of TIZ, human serum was added to the culture medium at various concentrations (Table 6). […] In the below tables, RM4863 is the same as compound 6 of Table 7.

Data set [6] is described as follows: Cytotoxicity by neutral red dye uptake in 2.2.15 cells. The settings on record: human. Here is the method: (§4) HBV antiviral assays were conducted as previous described (Korba and Gerin, 1992).
as §2

A further data set concerns HCV replication. Briefly: HCV replicon assay in the presence of human serum. The settings on record: Hepatitis C virus. Format: cell-based. The protocol:
as §1, §2, §3

A further data set deals with HBV. Briefly: HBV antiviral assay in confluent 2.2.15 cell cultures (HBV DNA, quantitative blot hybridization). Format: cell-based, Hepatitis B Virus.
Data set [7] can be described thus: Cytotoxicity by neutral red dye uptake in Huh7 cells containing H/FL-Neo. Format: cell-based. To be noted: human; Genotype 1a replicon.
In another data set the test system is HCV replicon cells. The data set can be described thus: Primary HCV replicon cell assay, cytotoxicity. To be noted: primary assay. The protocol:
as §1, §2

In a further data set the test system is HCV replicon genotype 1A. The data set can be described thus: Secondary HCV replicon cell assay, genotype 1A. The data set is classed as cell-based, Hepatitis C Virus. From the text:
(§5) Table 10 presents data from the secondary HCV replicon cell assays using genotypes 1B and 1A.

Another data set concerns HCV replicon genotype 1B. The data set can be described thus: Secondary HCV replicon cell assay, genotype 1B. Format: cell-based, Hepatitis C Virus.
Source text: as §5

The subject of data set [8] is HCV replicon cells, genotype 1A. The data set can be described thus: Secondary HCV replicon cell assay, genotype 1A, cytotoxicity. Format: cell-based.
Source text: as §5

A further data set concerns HCV replicon. The data set can be described thus: Primary HCV replicon cell assay. The data set is classed as cell-based, Hepatitis C Virus. The protocol: as §1, §2
The test system of data set [9] is HCV replicon cells, genotype 1B. Briefly: Secondary HCV replicon cell assay, genotype 1B, cytotoxicity. The data set is classed as cell-based.
Source text: as §5

For another data set, the system named is AVA5 cells. Briefly: Cytotoxicity by neutral red dye uptake in AVA5 cells. Format: cell-based. The settings on record: Genotype 1b replicon, 3 days.
Another data set concerns 2.2.15 cells. The data set can be described thus: Cytotoxicity by neutral red dye uptake in 2.2.15 cells. To be noted: confluent 2.2.15 cultures, nine daily doses, neutral red uptake. Here is the method:
as §4, §2

Data set [10] has as its system Huh7 cells containing H/FL-Neo. Briefly: Cytotoxicity by neutral red dye uptake in Huh7 cells containing H/FL-Neo. To be noted: Genotype 1a replicon. The data set is classed as cell-based.
Setting [11] is: Hepatitis C virus, Huh-7, Genotype 1a replicon.
Where [12] appears, read: Genotype 1b replicon, 3 days, first compound listed for combinations.

Description for HBV: EC50, EC90 and CC50 values (±standard deviations [S.D.]) were calculated by linear regression analysis using data combined from all treated cultures (Korba and Gerin, 1992; Okuse et al., 2005). […] Selectivity index (S.I.) was calculated as CC50/EC90 for HBV assays and CC50/EC50 for HCV assays. EC90 values were used for calculation of the S.I. in HBV assays since at least a 3-fold depression of HBV DNA levels is typically required to achieve statistical significance in this assay system (Korba and Gerin, 1992).

Usually CC50 stands for the concentration giving 50% cytotoxicity. A word on the EC50: it is the midpoint of the concentration-response curve. The EC90 is the concentration at which the effect reaches the 90% level. On to `O=C(Nc1ncc([N+](=O)[O-])s1)c1ccccc1O` [TIZ, tizoxanide], for which the cytotoxic concentration (CC50) at 3 days in [1] is 15 ± 1.2 µM; in data set [5] (CC50, human serum 0 %) it was 28 ± 0.9 µM; in data set [5] (CC50, human serum 2.5 %), 65 ± 1.4 µM; in data set [5] (CC50, human serum 5 %), 97 ± 3.9 µM; in [5] (CC50, human serum 10 %), more than 100 µM; in data set [5] (CC50, human serum 15 %) it was more than 100 µM. The cytotoxic concentration (CC50) at 3 days in data set [5] (CC50, human serum 20 %) was more than 100 µM; in data set [5] (CC50, human serum 30 %), more than 100 µM; in data set [7] it was 14 ± 0.2 µM. Besides, in data set [2], the “antiviral activity against full length genotype 1a replicon compared with AVA5 cells (genotype 1b)” value is “equivalent”. For the same compound, the “Selectivity Index” value in [2] (Genotype 1a replicon, CC50/EC50) came out at 56; in data set [3] (Genotype 1b replicon, CC50/EC50) it was 100. Besides, the EC50 in data set [2] (setting [11]) was 0.25 ± 0.03 µM; in the data set on HCV replication (human serum 0 %), 0.25 ± 0.01 µM; in the data set with HCV replication (human serum 2.5 %), 0.48 ± 0.02 µM; with HCV replication (human serum 5 %) it was 0.64 ± 0.05 µM; with HCV replication (human serum 10 %) it was 1.1 ± 0.1 µM; in the data set with HCV replication (human serum 15 %), 2.7 ± 0.3 µM. Also, the EC50 in the data set on HCV replication (human serum 20 %) is 9.4 ± 0.8 µM; with HCV replication (human serum 30 %), 9.3 ± 0.9 µM; in the data set with HBV (Hepatitis B virus, read-out: Intracellular HBV RI EC50), 0.46 ± 0.05 µM; in the data set with HBV (Hepatitis B virus, 2.2.15 cells, nine daily doses, read-out: Extracellular virion DNA EC50), 0.15 ± 0.02 µM. For the same compound, the EC90 in [2] (setting [11]) came to 1 ± 0.1 µM; in the data set on HCV replication (human serum 0 %) it was 0.98 ± 0.04 µM; with HCV replication (human serum 2.5 %), 1.1 ± 0.1 µM; in the data set with HCV replication (human serum 5 %), 2.3 ± 0.1 µM; in the data set with HCV replication (human serum 10 %), 3 ± 0.2 µM; in the data set on HCV replication (human serum 15 %) it was 15 ± 2 µM. Also, the 90% effect concentration (EC90) in the data set with HCV replication (human serum 20 %) is 27 ± 2.2 µM; with HCV replication (human serum 30 %), 32 ± 3 µM; in the data set with HBV (Hepatitis B virus, 2.2.15 cells, nine daily doses, read-out: Extracellular virion DNA EC90), 0.58 ± 0.06 µM; in the data set on HBV (Hepatitis B virus, 2.2.15 cells, nine daily doses, read-out: Intracellular HBV RI EC90), 1.2 ± 0.2 µM. The “inhibition of cytochrome P450 enzymes” value with cytochrome P450 enzymes is reported as “does not inhibit”. Further, in data set [4] (in vivo), the “elimination half-life from plasma” value is listed as “approximately 1.5 hours”. The Maximum serum concentrations result in data set [4] (one 500 mg NTZ tablet (Alinia) orally with food) was “approximately 10 μg/mL and ~37 μM”. Moreover, the “part of an oral dose that passes through the intestinal tract and is excreted in feces as TIZ” value in data set [4] (oral dose of NTZ) is listed as “Approximately two-thirds”. Also, the CC50 at 9 days in [6] is more than 100 µM. Also, the “Selectivity Index Virion” value in the data set with HBV (CC50/EC90, extracellular virion DNA) is more than 172. In addition, the “Selectivity Index RI” value in the data set on HBV (CC50/EC90, intracellular HBV RI) is reported as more than 83.

For `CS(=O)(=O)c1cnc(NC(=O)c2ccccc2O)s1` [Compound 75], the CC50 turned out to be 53 µM in the data set on HCV replicon cells, 56 µM in data set [8] and 54 µM in data set [9]. The results for the EC50 with HCV replicon genotype 1A and with HCV replicon were 2.8 µM and 2.1 µM, respectively. Further, the 90% effect concentration (EC90) with HCV replicon genotype 1A amounted to 8.5 µM; with HCV replicon genotype 1B it was 7.9 µM; with HCV replicon, 8.1 µM.

For `O=C(Nc1ncc(Br)s1)c1ccccc1O` [RM4832], the values for the CC50 (with AVA5 cells; in the data set on 2.2.15 cells; in data set [10]) were 98 ± 3.2 µM, more than 100 µM and 88 ± 2.1 µM, respectively. Moreover, the “antiviral activity against full length genotype 1a replicon compared with AVA5 cells (genotype 1b)” value in [2] was “equivalent”. For the same compound, the EC50 in data set [2] (Genotype 1a replicon) came to 2.8 ± 0.3 µM; in data set [3] (setting [12]), 4.9 ± 0.5 µM; with HBV (2.2.15 cells, nine daily doses, read-out: Extracellular virion DNA EC50) it was 1.2 ± 0.1 µM; with HBV (2.2.15 cells, nine daily doses, read-out: Intracellular HBV RI EC50) it was 2.9 ± 0.3 µM. Besides, the 90% effect concentration (EC90) in [2] (Genotype 1a replicon) worked out at 9.4 ± 1.1 µM; in [3] (setting [12]) it was 20 ± 1.9 µM; in the data set on HBV (2.2.15 cells, nine daily doses, read-out: Extracellular virion DNA EC90), 4 ± 0.3 µM; in the data set with HBV (2.2.15 cells, nine daily doses, read-out: Intracellular HBV RI EC90) it was 8.7 ± 1 µM. For the same compound, the “activity against HCV” value in data set [3] (among the other thiazolides) is listed as “exhibited activity”.
